Consider three molecules from patent publication US11390828B2, “Catnip cultivar ‘CR9’” (RUTGERS, THE STATE UNIVERSITY OF NEW JERSEY, priority 2016, dated 2022).

The subject of test [1] is Aedes aegypti. As to the kind of experiment: Dose dependent one-choice mosquito landing rate inhibition assay. Format: in vivo. As to the method: (§1) Nepeta cataria plants were evaluated as insect repellents against Aedes aegypti and Anopholes gambiae mosquitoes in a landing rate inhibition assay against DEET as shown in FIGS. 4 and 5. A dose dependent curve was generated for all treatments and a time course analysis was performed with a crude essential oil sample. […] Between two and four hours the ability to generate 95% repellency diminished.
Mosquito eggs were reared in water at 27° C. with 80% humidity and the mosquitoes were transferred during the rearing process with an eye dropper. The A. aegypti eggs were placed in a container holding water and once hatched and formed into larvae, they were separated from the unhatched eggs and placed into fresh water. General fish food tablets were used as the energy source for the maturing mosquitoes. As the mosquitoes began to form into pupae, they were separated from the smaller less developed larvae and placed into fresh water. This container was then placed into a Bug Dorm Cage where the pupae were allowed to mature into adults. […]
Repellency was determined by a one-choice landing assay that uses the amount of mosquito landings to calculate the overall effectiveness of the candidate repellent. […] Time lapse photography recorded one image every five seconds. […]

Test [2] concerns Anopholes gambiae. The test can be described thus: Dose dependent mosquito landing rate inhibition assay. Format: in vivo. The following applies: treatment at 1.00%, FIG. 5. On the procedure:
as §1
Repellency was determined by a one-choice landing assay that uses the amount of mosquito landings to calculate the overall effectiveness of the candidate repellent. Twenty, one day starved adult female Aedes aegypti mosquitoes were aspirated into a Bug Dorm Cage. Testing was performed between 10:00 am and 4:00 pm PST during A. aegypti's host seeking hours. A HotHands® heat pack was used as the heat source to attract the mosquitoes in the upper region of the back panel. Treatments were applied to a Whatman® filter paper and used to wrap the heat source. A control of just acetone was applied to the filter papers before and after each treatment to ensure reproducibility in mosquito behavior. […] Time lapse photography recorded one image every five seconds. A custom was used to count the mosquitoes automatically through the open source image processing software ImageJ.

Test [3] has as its system house and stable flies. The following applies: in vivo; cited from earlier work.
The test system of test [4] is house dust mite species, poultry mites. Conditions: in vivo; cited from earlier work.
The subject of test [5] is harvester ants. The following applies: body contact; cited from earlier work.
The subject of test [6] is two species of mosquitoes. Conditions: cited from earlier work.

Regarding `CCN(CC)C(=O)c1cccc(C)c1` [DEET], the “decrease in landings of mosquitoes (repellency)” value is reported as above 95% in test [1] (treatment at 1.00% on filter paper, FIG. 4) and above 95% in test [2].
On to Z, E nepetalactone, for which the repellency entry in test [3] is “significant repellency”; in test [4], “efficient in repelling”. Further, in test [5], the “speed of mortality compared with the other nepetalactones in catnip” value is “mortality was achieved faster”. Moreover, the “repellency percentage compared between treatments” value in test [1] (treatment at 0.10%) was “highest repellency percentage”.
For the molecule `CC1COC(=O)C2C(C)CCC12` (centres unmarked) [dihydronepetalactone 2], in test [6] (human subjects), the “duration of complete protection” value was “up to five”. Besides, the “repelling efficacy compared with DEET” value in test [6] (two species of mosquitoes) is “as effective at repelling two species of mosquitoes as DEET”.
